Assay results taken from PMC5564600 (Oncotarget, 2017).
In brackets after ≈: the same amount, converted by molar mass. Values belong to the compound of their own block, whether it stands above or below them.

Experiments:
PI3Kγ = PI3Kγ (Homo sapiens, UniProt P48736); test: PI3K (human) HTRF assay, PI3Kγ; format: biochemical; details: ATP 10 μM, mean ± SEM
[1] = Plasma pharmacokinetics of SN32976 and stable major metabolites in mice (30 mg/kg oral); details: mouse plasma, 30 mg/kg SN32976 oral gavage
mTOR = mTOR (Homo sapiens, UniProt P42345); test: SelectScreen Z'LYTE kinase assay (Invitrogen), mTOR; format: biochemical; details: determined by Invitrogen, mean ± SEM, n=2
[2] = Metabolite identification in mouse liver microsomes; format: in vitro ADME; details: 10 μM SN32976, 60 min
[3] = Metabolite identification in dog liver microsomes; format: in vitro ADME; details: 10 μM SN32976, 60 min
[4] = Metabolite identification in monkey liver microsomes; format: in vitro ADME, Cynomolgus monkey; details: 10 μM SN32976, 60 min
[5] = Metabolite identification in human liver microsomes; format: in vitro ADME; details: 10 μM SN32976, 60 min
[6] = Metabolite identification in rat liver microsomes; format: in vitro ADME; details: 10 μM SN32976, 60 min
PI3Kβ = PI3Kβ (Homo sapiens, UniProt P42338); test: PI3K (human) HTRF assay, PI3Kβ; format: biochemical; details: ATP 10 μM, mean ± SEM
PI3Kβ, sequence (P42338 whole entry): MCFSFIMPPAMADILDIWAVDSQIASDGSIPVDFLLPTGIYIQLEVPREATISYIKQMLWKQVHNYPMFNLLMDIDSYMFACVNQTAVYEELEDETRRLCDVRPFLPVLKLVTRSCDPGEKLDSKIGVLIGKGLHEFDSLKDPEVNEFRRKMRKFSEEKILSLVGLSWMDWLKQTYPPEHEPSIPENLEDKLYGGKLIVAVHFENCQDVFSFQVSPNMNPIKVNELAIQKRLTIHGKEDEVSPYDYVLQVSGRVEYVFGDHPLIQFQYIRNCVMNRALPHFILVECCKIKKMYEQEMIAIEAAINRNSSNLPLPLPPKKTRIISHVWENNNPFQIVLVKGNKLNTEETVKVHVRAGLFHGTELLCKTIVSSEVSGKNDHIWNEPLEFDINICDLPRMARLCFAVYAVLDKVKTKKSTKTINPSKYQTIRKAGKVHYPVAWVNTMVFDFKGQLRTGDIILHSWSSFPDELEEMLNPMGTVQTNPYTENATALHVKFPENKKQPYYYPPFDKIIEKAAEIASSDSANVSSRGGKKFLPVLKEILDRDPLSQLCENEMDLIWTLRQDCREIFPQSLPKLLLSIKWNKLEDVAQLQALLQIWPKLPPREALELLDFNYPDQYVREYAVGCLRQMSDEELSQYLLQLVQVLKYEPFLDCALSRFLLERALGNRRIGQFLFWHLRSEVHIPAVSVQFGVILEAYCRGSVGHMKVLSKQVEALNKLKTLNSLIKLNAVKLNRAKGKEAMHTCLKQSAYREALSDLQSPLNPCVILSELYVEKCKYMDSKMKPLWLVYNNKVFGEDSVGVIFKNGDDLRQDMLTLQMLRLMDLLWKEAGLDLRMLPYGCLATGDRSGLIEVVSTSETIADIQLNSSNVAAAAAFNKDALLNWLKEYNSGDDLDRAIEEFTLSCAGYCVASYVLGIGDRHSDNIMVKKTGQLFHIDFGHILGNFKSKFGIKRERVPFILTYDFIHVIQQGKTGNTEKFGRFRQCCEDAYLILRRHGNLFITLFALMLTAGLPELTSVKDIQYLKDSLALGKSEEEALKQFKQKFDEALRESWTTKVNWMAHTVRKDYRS
PI3Kβ, sequence (P27986 whole entry partner): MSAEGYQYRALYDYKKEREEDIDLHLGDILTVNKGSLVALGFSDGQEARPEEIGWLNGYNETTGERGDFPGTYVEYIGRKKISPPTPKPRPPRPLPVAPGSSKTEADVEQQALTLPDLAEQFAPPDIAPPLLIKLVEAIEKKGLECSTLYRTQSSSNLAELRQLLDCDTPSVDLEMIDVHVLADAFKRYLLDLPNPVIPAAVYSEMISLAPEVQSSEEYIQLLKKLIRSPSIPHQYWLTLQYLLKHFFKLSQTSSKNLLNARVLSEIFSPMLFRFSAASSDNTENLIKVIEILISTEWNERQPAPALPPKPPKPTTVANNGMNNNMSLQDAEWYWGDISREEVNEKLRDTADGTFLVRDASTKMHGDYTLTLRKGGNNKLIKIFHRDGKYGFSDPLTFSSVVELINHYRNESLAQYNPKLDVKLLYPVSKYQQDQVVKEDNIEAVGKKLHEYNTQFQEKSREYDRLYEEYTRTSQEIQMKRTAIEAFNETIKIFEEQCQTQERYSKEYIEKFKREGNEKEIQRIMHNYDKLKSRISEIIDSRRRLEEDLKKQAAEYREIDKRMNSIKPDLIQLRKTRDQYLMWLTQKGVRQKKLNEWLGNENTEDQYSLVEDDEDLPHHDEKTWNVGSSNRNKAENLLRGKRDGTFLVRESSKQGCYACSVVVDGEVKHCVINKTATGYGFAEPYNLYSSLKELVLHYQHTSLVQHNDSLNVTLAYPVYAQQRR

PI3Kδ = PI3Kδ (Homo sapiens, UniProt O00329); test: PI3K (human) HTRF assay, PI3Kδ; format: biochemical; details: ATP 10 μM, mean ± SEM
PI3Kα [7] = target: PI3Kα (Homo sapiens, UniProt P42336); test: PI3K (human) HTRF assay, PI3Kα; format: biochemical
PI3Kα (Homo sapiens, UniProt P42336), sequence (P42336 whole entry): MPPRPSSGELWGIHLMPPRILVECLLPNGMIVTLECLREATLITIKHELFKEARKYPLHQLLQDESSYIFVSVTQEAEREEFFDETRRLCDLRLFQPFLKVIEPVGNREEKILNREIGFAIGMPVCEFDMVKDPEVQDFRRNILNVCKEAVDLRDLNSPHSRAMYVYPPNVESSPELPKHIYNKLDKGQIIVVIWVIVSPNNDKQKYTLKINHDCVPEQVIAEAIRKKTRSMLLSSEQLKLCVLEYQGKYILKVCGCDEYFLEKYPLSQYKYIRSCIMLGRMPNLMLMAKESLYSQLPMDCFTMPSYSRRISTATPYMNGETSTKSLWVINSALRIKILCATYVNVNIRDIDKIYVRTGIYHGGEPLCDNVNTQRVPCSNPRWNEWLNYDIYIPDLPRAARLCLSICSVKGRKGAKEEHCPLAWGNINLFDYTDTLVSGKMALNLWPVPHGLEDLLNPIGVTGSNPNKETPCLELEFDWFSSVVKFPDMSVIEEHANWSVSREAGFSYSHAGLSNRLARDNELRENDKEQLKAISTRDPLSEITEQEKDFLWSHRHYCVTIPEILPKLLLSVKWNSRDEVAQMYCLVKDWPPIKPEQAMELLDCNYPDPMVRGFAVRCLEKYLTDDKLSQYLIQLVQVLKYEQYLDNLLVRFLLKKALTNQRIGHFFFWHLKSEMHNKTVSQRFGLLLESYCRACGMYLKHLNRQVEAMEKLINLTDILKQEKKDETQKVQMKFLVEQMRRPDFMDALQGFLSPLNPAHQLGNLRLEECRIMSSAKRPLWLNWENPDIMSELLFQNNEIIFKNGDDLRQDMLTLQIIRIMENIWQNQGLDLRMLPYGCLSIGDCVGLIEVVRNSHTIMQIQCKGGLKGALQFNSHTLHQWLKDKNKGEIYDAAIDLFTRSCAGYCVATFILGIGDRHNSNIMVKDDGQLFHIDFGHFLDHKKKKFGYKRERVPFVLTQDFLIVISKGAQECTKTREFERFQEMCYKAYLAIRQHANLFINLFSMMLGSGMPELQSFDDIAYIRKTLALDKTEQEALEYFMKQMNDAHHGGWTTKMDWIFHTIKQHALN
PI3Kα (Homo sapiens, UniProt P42336), sequence (P27986 whole entry partner): as the sequence (P27986 whole entry partner) above

[8] = Tumor and plasma concentrations of SN32976 and major metabolites in mice with U-87 MG tumors after multiple doses; details: multiple doses of 100 mg/kg SN32976
CYP3A4 [9] = test: Cytochrome P450 induction in cultured hepatocytes (mRNA, qRT-PCR), CYP3A4; format: in vitro ADME; details: at 10 μM, hepatocytes 72 h, mean ± SD
[10] = Plasma pharmacokinetics in rats; details: male, Sprague-Dawley, rat, po, 10 mg/kg
CYP2C9 = target: T1, CYP2C9 (Homo sapiens, UniProt P11712); test: Cytochrome P450 inhibition in human liver microsomes, CYP2C9; format: in vitro ADME; details: mean ± SD, read-out: CYP inhibition 2C9 IC50
T1 construct: was evaluated in human liver microsomes incubated with SN32976; tissue Cyprotex (contract research organization); host or cells: human liver microsomes

CYP3A4 [11] = target: T2, CYP3A4 (Homo sapiens, UniProt P08684); test: Cytochrome P450 inhibition in human liver microsomes, CYP3A4; format: in vitro ADME; details: read-out: CYP inhibition 3A4 IC50
T2 construct: was evaluated in human liver microsomes incubated with SN32976; tissue Cyprotex (contract research organization); host or cells: human liver microsomes

CYP2B6 = test: Cytochrome P450 induction in cultured hepatocytes (mRNA, qRT-PCR), CYP2B6; format: in vitro ADME; details: at 10 μM, hepatocytes 72 h, mean ± SD
CYP1A2 [12] = test: Cytochrome P450 induction in cultured hepatocytes (mRNA, qRT-PCR), CYP1A2; format: in vitro ADME; details: at 10 μM, hepatocytes 72 h, mean ± SD
[13] = Rat dose proportionality study (oral); details: male, Sprague-Dawley, plasma
[14] = Solubility in potassium phosphate buffer; format: physicochemical; details: aqueous buffer, thermodynamic from solid
CYP1A2 [15] = target: T3, CYP1A2 (Homo sapiens, UniProt P05177); test: Cytochrome P450 inhibition in human liver microsomes, CYP1A2; format: in vitro ADME; details: read-out: CYP inhibition 1A2 IC50
T3 construct: was evaluated in human liver microsomes incubated with SN32976; tissue Cyprotex (contract research organization); host or cells: human liver microsomes
T3 sequence (P05177 whole entry): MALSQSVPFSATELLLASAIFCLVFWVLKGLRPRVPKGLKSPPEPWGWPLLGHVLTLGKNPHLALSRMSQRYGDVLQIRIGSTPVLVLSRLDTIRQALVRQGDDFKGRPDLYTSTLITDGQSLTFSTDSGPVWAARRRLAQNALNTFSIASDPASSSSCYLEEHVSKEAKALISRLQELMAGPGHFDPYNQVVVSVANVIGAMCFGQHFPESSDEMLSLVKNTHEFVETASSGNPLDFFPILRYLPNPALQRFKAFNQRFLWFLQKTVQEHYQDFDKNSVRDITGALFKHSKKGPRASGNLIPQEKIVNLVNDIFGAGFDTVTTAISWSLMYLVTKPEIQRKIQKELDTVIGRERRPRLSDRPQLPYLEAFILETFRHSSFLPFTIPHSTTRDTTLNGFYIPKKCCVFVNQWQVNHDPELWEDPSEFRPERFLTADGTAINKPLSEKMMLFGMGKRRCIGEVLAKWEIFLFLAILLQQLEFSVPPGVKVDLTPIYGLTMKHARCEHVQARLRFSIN

CYP2D6 = target: T4, CYP2D6 (Homo sapiens, UniProt P10635); test: Cytochrome P450 inhibition in human liver microsomes, CYP2D6; format: in vitro ADME; details: read-out: CYP inhibition 2D6 IC50
T4 construct: was evaluated in human liver microsomes incubated with SN32976; tissue Cyprotex (contract research organization); host or cells: human liver microsomes
T4 sequence (P10635 whole entry): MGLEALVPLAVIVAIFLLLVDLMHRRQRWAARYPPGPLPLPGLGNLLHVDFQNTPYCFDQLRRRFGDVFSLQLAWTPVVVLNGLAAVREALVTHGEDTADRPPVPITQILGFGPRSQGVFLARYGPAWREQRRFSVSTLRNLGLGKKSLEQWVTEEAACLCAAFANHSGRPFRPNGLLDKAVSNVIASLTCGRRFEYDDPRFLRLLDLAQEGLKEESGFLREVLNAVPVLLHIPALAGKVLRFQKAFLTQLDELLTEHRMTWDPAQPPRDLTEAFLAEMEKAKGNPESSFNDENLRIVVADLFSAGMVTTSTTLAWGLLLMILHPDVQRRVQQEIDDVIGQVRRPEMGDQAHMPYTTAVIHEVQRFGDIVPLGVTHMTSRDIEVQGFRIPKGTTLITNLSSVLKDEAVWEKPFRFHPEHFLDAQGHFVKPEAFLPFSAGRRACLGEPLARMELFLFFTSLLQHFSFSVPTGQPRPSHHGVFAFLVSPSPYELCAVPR

PIK3C2B = target: T5, PIK3C2B (Homo sapiens, UniProt O00750); test: KINOMEscan, PIK3C2B; format: binding; details: 10 μM
T5 construct: purchased Ambit Biosciences (scanMAXX KINOMEscan)

[16] = Plasma pharmacokinetics in dogs; details: male, Beagle, dog, po, 10 mg/kg
CYP2C19 = target: T6, CYP2C19 (Homo sapiens, UniProt P33261); test: Cytochrome P450 inhibition in human liver microsomes, CYP2C19; format: in vitro ADME; details: read-out: CYP inhibition 2C19 IC50
T6 construct: was evaluated in human liver microsomes incubated with SN32976; tissue Cyprotex (contract research organization); host or cells: human liver microsomes

[17] = Plasma pharmacokinetics in mice; details: male, CD1, mouse, po, 20 mg/kg
PIK3C2G = target: T7, PIK3C2G (Homo sapiens, UniProt O75747); test: KINOMEscan, PIK3C2G; format: binding; details: 10 μM
T7 construct: purchased Ambit Biosciences (scanMAXX KINOMEscan)
T7 sequence (O75747 1-1486): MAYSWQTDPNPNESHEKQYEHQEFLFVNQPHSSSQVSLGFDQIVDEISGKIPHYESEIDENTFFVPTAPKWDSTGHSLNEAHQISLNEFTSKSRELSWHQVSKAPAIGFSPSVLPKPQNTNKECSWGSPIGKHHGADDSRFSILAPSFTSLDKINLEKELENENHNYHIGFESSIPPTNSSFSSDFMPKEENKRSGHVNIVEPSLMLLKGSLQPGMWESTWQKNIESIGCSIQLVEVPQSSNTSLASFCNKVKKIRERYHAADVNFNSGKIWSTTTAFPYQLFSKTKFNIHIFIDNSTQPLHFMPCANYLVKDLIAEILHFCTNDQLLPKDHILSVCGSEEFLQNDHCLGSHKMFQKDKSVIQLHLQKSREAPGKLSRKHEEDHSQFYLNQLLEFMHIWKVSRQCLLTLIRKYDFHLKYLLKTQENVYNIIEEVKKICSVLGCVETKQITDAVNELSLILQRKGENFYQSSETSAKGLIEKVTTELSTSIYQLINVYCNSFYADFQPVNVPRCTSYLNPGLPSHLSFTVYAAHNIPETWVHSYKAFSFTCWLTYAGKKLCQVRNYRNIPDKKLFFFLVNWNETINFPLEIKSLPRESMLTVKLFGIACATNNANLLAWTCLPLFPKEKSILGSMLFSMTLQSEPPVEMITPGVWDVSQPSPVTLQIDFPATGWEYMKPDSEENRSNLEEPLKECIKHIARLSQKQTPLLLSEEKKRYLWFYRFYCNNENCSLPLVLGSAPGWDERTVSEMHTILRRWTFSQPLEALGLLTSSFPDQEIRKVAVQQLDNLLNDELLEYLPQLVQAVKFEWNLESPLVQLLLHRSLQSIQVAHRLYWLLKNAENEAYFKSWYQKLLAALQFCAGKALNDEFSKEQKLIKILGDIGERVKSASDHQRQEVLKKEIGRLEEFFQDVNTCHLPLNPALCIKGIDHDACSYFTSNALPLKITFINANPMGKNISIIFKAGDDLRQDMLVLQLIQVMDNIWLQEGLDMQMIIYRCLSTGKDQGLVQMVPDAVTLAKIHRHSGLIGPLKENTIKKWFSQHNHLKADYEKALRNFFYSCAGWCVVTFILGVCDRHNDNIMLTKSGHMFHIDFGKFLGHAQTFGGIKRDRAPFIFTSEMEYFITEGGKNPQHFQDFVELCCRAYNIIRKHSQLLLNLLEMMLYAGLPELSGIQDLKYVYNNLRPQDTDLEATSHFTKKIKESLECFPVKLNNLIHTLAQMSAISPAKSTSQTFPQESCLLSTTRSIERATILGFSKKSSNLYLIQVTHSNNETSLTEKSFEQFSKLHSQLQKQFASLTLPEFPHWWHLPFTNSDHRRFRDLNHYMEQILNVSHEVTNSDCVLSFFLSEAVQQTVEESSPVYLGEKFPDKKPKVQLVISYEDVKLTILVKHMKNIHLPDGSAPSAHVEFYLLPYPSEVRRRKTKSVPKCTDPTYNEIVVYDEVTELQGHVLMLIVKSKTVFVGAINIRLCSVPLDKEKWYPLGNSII

PI3Kα [18] = test system: PI3Kα; design: method as in PMID 23726034, PMID 23275335; details: cited from earlier work

PI3Kγ, sequence (P48736 whole entry): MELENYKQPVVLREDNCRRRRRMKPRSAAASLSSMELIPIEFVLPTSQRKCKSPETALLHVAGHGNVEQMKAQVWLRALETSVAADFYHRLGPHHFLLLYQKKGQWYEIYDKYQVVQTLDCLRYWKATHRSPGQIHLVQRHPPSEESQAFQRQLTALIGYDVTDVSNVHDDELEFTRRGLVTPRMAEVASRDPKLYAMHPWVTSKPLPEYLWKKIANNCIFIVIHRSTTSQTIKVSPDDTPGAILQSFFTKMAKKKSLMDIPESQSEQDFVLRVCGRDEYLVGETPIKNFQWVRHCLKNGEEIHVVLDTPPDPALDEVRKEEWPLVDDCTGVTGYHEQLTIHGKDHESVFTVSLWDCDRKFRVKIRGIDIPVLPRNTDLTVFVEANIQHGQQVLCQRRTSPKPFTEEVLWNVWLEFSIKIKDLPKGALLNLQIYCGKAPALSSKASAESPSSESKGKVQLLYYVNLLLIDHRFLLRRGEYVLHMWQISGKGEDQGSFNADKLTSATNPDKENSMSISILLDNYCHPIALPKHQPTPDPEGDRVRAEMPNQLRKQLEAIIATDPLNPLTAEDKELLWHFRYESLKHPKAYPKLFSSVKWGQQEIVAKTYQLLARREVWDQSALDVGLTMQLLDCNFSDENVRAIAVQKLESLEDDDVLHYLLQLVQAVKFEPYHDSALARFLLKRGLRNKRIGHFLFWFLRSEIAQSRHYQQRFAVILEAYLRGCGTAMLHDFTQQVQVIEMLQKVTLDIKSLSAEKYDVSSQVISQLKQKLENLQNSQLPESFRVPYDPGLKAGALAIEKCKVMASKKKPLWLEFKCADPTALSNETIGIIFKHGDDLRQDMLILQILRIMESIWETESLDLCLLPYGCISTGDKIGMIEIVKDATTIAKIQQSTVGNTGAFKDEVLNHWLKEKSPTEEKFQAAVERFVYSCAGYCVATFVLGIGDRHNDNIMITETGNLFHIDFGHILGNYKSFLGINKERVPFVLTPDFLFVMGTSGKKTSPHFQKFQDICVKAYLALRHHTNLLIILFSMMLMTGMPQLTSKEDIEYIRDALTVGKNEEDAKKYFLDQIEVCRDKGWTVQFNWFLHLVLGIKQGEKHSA

SMILES: COc1cccc2c1nc(C(F)F)n2-c1nc(N2CCOCC2)nc(N2CCN(S(=O)(=O)CCN)CC2)n1 [M8]
- IC50 (PI3Kγ): 68 ± 18.6 nM
- contribution to combined plasma AUC [1]: 0.13%

SMILES: CNCCS(=O)(=O)N1CCN(c2nc(N3CCOCC3)nc(-n3c(C(F)F)nc4c(OC)cccc43)n2)CC1 [M9]
- IC50 (PI3Kγ): 90.3 ± 17.1 nM
- contribution to combined plasma AUC [1]: 27.1%
- IC50 (mTOR): 244 ± 56 nM

- metabolite quantity in liver microsomes (relative peak area class) [2]: major (major (>10% relative peak areas))
- metabolite quantity in liver microsomes (relative peak area class) [6]: major (major (>10% relative peak areas))
SMILES: COc1cccc2c1nc(C(F)F)n2-c1nc(N2CCOCC2)nc(N2CCN(S(=O)(=O)CC[N+](C)(C)[O-])CC2)n1 [M10]
- metabolite quantity in liver microsomes (relative peak area class) [3]: minor (minor (1-10% relative peak areas))
- metabolite quantity in liver microsomes (relative peak area class) [4]: minor (minor (1-10% relative peak areas))
- metabolite quantity in liver microsomes (relative peak area class) [5]: trace (trace (<1% relative peak areas in the total ion chromatograph))

- metabolite quantity in liver microsomes (relative peak area class) [2]: major (major (>10% relative peak areas))
- IC50 (PI3Kγ): 26.3 ± 2.6 nM
- contribution to combined plasma AUC [1]: 1.0%
- IC50 (PI3Kβ): > 1000 nM
- IC50 PI3Kβ (PI3Kβ): lacked activity
- IC50 (PI3Kδ): 55 ± 24.1 nM
- IC50 (mTOR): 74.9 ± 25.1 nM
- IC50 (PI3Kα [7]; HTRF assay, ATP 10 μM, mean ± SEM): 6.2 ± 0.5 nM
- selectivity for PI3Kα over all other PI3K isoforms and mTOR (PI3Kα [7]; ratio of biochemical IC50): 4.2 fold
- metabolite quantity in liver microsomes (relative peak area class) [3]: major (major (>10% relative peak areas))
- metabolite quantity in liver microsomes (relative peak area class) [4]: major (major (>10% relative peak areas))
- metabolite quantity in liver microsomes (relative peak area class) [5]: major (major (>10% relative peak areas))
- metabolite AUC relative to parent in plasma [8]: 8.8 % of parent
- metabolite AUC relative to parent in tumor [8]: 2.4 % of parent
- metabolite quantity in liver microsomes (relative peak area class) [6]: major (major (>10% relative peak areas))
SMILES: C=CS(=O)(=O)N1CCN(c2nc(N3CCOCC3)nc(-n3c(C(F)F)nc4c(OC)cccc43)n2)CC1 [M17]

SMILES: COc1cccc2c1nc(C(F)F)n2-c1nc(N2CCOCC2)nc(N2CCN(S(=O)(=O)CCN(C)C)CC2)n1 [SN32976, 2-((4-(4-(2-(difluoromethyl)-4-methoxy-1H-benzo[d]imidazol-1-yl)-6-morpholino-1,3,5-triazin-2-yl)piperazin-1-yl)sulfonyl)-N, N-dimethylethan-1-amine]
- CYP induction 3A4 (CYP3A4 [9]): 1.39 ± 0.21
- AUC [10]: 0.579 µM·h
- bioavailability [10]: 8.1%
- IC50 (CYP2C9): 20000 nM
- IC50 (CYP3A4 [11]): > 25000 nM
- IC50 (PI3Kγ): 110 ± 41 nM
- contribution to combined plasma AUC [1]: 71.8%
- CYP induction 2B6 (CYP2B6): 0.31 ± 0.01
- CYP induction 1A2 (CYP1A2 [12]): 1.27 ± 0.01
- AUC ([13]; 10 mg/kg): 0.417 µM·h
- Cmax ([13]; 10 mg/kg): 34.1 nM
- Tmax ([13]; 10 mg/kg): 4 h
- half-life ([13]; 10 mg/kg): 2.27 h
- AUC ([13]; 30 mg/kg): 1.07 µM·h
- Cmax ([13]; 30 mg/kg): 125 nM
- Tmax ([13]; 30 mg/kg): 1 h
- half-life ([13]; 30 mg/kg): 4.62 h
- AUC ([13]; 100 mg/kg): 16.4 µM·h
- Cmax ([13]; 100 mg/kg): 893 nM
- Tmax ([13]; 100 mg/kg): 1 h
- half-life ([13]; 100 mg/kg): 9.77 h
- AUC ([13]; 300 mg/kg): 139 µM·h
- Cmax ([13]; 300 mg/kg): 6810 nM
- Tmax ([13]; 300 mg/kg): 4 h
- solubility ([14]; pH 2.0): > 100000 µM
- solubility ([14]; pH 7.4, mean ± SD): 11.2 µM (≈ 6.51 µg/mL)
- IC50 (CYP1A2 [15]): > 25000 nM
- IC50 (mTOR): 194 ± 55 nM
- IC50 (CYP2D6): > 25000 nM
- off-target activity against PIK3C2B (PIK3C2B): off-target activity
- AUC [16]: 3.22 µM·h
- bioavailability [16]: 35.9%
- IC50 (CYP2C19): > 25000 nM
- AUC [17]: 2.5 µM·h
- bioavailability [17]: 33.4%
- off-target activity against PIK3C2G (PIK3C2G): off-target activity

SMILES: Cc1nc(NC(=O)N2CCC[C@H]2C(N)=O)sc1-c1ccnc(C(C)(C)C(F)(F)F)c1 [alpelisib]
- selectivity for PI3Kα over other class I PI3K isoforms and mTOR (PI3Kα [18]): > 50 fold

SMILES: Nc1nc2cc(-c3ccc4ncc(C(=O)N5CCOCC5)n4c3)ccc2o1 [serabelisib]
- selectivity for PI3Kα over other class I PI3K isoforms and mTOR (PI3Kα [18]): > 50 fold
